ChEMBL document CHEMBL5465560, “Selectivity Literature for EUbOPEN Chemogenomic Library” (2024)

Assays:
[1] = biological target: Maternal embryonic leucine zipper kinase (Homo sapiens) (UniProt Q14680); test: Selectivity interaction (KinomeScan (DiscoverX)) EUB0000618a MELK; details: at 10 µM
[2] = biological target: T1, Serine/threonine-protein kinase TBK1 (Homo sapiens) (UniProt Q9UHD2); test: Selectivity interaction (ActivX KiNativ screen (ex vivo kinase selectivity in human PBMCs)) EUB0001619a TBK1; format: cell-based; details: PBMC, at 1 µM
T1 sequence (whole entry): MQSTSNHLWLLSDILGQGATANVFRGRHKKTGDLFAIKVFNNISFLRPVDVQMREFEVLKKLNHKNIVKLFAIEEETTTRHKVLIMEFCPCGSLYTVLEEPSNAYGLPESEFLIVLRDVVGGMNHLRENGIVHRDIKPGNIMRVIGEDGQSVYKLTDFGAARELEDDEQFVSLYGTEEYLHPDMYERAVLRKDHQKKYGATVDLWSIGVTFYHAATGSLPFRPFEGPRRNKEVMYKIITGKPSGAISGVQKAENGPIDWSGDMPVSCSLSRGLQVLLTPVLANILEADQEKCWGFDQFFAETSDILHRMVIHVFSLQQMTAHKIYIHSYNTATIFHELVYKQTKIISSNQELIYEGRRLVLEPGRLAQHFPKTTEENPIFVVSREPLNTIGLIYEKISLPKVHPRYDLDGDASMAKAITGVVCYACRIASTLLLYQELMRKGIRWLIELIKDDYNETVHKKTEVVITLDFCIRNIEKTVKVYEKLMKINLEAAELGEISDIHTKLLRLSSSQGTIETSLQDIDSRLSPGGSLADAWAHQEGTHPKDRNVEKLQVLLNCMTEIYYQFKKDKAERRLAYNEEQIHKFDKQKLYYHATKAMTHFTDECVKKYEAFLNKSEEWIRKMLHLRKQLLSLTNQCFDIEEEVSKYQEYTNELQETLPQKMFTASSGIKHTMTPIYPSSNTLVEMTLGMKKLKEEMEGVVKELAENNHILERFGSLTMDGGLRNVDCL

[3] = biological target: Serine/threonine-protein kinase MARK1 (Homo sapiens) (UniProt Q9P0L2); details: at 10 µM
[4] = biological target: T2, Mitogen-activated protein kinase kinase kinase 5 (Homo sapiens) (UniProt Q99683); test: Selectivity interaction (Upstate Kinase Profiler service (Millipore)) EUB0000056c MAP3K5; details: at 1 µM
T2 sequence (whole entry): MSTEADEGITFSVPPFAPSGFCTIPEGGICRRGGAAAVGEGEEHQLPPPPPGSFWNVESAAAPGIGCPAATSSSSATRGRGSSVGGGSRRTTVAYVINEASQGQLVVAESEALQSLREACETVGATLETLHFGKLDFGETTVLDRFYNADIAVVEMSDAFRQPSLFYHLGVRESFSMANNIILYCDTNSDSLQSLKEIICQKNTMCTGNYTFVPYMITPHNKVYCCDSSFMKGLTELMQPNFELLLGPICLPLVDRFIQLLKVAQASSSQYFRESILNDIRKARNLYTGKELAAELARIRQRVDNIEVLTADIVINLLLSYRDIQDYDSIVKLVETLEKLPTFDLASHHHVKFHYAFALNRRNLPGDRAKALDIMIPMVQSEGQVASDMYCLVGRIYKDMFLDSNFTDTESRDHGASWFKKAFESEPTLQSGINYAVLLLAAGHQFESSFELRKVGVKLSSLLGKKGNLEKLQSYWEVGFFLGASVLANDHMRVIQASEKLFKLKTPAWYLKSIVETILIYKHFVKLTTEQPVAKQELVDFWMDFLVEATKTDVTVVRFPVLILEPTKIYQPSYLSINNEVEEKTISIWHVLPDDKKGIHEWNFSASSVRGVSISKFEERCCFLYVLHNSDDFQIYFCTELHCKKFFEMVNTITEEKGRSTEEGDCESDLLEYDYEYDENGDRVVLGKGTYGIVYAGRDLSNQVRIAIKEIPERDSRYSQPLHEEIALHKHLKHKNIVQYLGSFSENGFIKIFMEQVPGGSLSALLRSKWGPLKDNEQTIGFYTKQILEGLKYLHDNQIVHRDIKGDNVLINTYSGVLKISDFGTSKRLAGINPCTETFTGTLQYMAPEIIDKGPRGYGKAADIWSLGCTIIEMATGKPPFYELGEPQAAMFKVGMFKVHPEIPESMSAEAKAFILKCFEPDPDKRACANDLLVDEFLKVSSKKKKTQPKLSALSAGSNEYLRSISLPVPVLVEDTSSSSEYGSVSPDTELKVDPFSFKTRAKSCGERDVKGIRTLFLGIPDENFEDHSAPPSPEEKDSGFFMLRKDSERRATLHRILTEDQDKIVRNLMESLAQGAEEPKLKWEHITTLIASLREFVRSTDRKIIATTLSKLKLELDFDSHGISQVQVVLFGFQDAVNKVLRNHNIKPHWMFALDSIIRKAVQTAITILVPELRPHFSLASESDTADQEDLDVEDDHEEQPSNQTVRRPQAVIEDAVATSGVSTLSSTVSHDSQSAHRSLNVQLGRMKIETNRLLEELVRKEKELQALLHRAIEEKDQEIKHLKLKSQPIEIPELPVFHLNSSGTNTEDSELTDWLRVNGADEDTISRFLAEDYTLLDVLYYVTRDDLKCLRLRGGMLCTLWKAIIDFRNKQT

[5] = biological target: T1, Serine/threonine-protein kinase TBK1 (Homo sapiens); test: Selectivity interaction (ActivX KiNativ screen (kinase selectivity in THP-1 cell lysates)) EUB0000639a TBK1; format: subcellular; details: lysate
[6] = biological target: Phosphatidylinositol 4,5-bisphosphate 3-kinase catalytic subunit gamma isoform (Homo sapiens) (UniProt P48736); test: Selectivity interaction (KinomeScan (DiscoverX)) EUB0000877a PIK3CG; details: at 10 µM
[7] = biological target: Serine/threonine-protein kinase PAK 6 (Homo sapiens) (UniProt Q9NQU5); test: Selectivity interaction (KinomeScan (DiscoverX)) EUB0000092b PAK6; details: at 10 µM
Chain of Serine/threonine-protein kinase PAK 6 (Homo sapiens) (Q9NQU5 whole entry, looked up): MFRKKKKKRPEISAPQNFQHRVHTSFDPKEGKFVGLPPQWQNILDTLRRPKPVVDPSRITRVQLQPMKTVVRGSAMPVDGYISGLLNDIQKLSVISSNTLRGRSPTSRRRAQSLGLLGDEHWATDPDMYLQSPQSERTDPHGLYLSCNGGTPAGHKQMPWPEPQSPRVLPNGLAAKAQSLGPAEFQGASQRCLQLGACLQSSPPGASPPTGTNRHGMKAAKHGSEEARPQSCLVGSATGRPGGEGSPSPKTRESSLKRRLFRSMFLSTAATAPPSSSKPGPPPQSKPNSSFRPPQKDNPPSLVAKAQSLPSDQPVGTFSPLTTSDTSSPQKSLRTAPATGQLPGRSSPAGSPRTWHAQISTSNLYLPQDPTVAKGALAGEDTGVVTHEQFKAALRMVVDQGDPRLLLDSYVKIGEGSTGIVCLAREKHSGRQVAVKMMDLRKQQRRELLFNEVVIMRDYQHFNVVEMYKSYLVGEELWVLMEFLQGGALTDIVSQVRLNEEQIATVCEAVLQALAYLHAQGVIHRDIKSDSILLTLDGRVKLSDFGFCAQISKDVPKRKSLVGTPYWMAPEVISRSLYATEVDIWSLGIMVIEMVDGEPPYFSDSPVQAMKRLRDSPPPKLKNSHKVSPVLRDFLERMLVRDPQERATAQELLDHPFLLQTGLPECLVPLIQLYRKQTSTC

Chain of Maternal embryonic leucine zipper kinase (Homo sapiens) (Q14680 whole entry, looked up): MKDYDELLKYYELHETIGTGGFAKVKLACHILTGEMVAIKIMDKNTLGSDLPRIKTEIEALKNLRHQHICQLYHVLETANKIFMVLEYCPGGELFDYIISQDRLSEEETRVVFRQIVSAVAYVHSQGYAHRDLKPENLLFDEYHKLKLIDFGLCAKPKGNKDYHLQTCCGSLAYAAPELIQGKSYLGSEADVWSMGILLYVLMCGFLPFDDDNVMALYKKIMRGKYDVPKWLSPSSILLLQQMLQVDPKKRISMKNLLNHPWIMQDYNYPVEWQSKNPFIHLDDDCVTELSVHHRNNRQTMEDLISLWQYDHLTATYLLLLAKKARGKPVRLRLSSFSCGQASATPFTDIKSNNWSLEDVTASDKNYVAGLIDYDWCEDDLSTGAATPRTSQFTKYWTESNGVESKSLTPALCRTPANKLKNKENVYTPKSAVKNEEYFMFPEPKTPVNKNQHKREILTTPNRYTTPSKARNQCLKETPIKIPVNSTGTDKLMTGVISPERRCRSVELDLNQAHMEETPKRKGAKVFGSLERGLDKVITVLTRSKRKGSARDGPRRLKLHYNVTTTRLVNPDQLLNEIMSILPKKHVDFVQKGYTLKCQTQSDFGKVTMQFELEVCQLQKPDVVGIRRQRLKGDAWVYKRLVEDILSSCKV
Chain of Phosphatidylinositol 4,5-bisphosphate 3-kinase catalytic subunit gamma isoform (Homo sapiens) (P48736 whole entry, looked up, canonical isoform): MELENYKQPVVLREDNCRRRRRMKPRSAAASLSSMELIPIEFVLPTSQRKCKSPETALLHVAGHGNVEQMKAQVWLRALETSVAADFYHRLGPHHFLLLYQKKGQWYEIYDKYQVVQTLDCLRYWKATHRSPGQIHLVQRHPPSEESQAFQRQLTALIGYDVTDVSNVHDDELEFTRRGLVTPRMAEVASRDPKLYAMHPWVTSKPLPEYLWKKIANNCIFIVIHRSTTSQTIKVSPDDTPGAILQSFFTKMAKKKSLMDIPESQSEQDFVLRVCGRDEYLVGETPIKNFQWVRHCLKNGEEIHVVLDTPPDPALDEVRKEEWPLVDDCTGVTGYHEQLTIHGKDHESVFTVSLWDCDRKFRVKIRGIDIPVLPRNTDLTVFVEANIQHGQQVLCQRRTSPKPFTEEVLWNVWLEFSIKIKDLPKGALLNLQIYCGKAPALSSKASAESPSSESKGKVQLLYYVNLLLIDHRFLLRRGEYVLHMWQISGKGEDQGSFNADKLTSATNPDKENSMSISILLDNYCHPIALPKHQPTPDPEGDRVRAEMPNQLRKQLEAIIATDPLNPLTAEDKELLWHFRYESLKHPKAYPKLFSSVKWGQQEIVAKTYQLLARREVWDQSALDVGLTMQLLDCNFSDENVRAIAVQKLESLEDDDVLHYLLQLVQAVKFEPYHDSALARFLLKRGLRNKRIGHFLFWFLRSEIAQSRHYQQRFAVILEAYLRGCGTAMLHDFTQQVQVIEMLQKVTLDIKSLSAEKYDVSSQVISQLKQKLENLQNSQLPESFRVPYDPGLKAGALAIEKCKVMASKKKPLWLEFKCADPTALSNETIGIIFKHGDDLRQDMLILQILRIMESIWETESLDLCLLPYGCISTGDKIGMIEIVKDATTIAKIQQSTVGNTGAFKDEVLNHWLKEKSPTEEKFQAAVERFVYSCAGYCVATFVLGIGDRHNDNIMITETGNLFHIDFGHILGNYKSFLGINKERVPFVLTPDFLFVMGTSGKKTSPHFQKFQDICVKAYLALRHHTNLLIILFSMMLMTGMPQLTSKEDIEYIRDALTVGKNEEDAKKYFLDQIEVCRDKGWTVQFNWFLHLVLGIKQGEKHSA
Chain of Serine/threonine-protein kinase MARK1 (Homo sapiens) (Q9P0L2 whole entry, looked up): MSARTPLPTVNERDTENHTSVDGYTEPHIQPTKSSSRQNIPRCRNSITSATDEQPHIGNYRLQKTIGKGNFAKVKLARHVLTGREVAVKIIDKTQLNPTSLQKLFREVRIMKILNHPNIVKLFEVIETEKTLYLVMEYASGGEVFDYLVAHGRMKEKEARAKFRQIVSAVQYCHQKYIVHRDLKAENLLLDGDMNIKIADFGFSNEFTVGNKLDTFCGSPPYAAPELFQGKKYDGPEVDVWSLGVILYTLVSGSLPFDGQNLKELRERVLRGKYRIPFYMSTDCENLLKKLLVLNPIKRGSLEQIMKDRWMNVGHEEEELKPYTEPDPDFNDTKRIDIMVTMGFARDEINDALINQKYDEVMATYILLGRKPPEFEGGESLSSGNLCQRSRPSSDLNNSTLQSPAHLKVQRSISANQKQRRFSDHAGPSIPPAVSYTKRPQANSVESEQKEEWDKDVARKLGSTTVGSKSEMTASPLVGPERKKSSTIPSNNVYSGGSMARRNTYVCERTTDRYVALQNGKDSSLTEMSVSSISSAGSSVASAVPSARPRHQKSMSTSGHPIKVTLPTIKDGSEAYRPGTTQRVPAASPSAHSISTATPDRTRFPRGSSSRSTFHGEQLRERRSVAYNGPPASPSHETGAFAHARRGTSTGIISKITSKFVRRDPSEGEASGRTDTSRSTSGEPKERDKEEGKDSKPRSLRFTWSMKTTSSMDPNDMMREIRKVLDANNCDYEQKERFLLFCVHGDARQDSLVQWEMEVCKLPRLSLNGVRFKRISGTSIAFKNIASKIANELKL

## O[C@H]1CC[C@H](Nc2ncc3nc(Nc4c(F)cc(F)cc4F)n([C@H]4CCOC4)c3n2)CC1
[1]
  % of control: 92%

## N#Cc1cccc(-c2c[nH]c3ncnc(N4CCOCC4)c23)c1
[2]
  % of inhibition: 19%

## COCC(=O)NC/C=C/c1ccc2ncnc(Nc3ccc(Oc4ccc(C)nc4)c(C)c3)c2c1 [CP-724714]
[3]
  % of control: 100%

## Cc1ccc(-c2ccc3c(ccc4sc5c(c43)NC[C@@H](C)NC5=O)n2)cn1
[4]
  % of inhibition: 90%

## CC[C@@H]1[C@H](F)C(=O)N[C@@H]1COc1nccc2cc(C(N)=O)c(OC)cc12 [ZIMLOVISERTIB]
[5]; at 0.01 µM
  % of inhibition: -51.9%
[5]; at 0.04 µM
  % of inhibition: -22.2%
[5]; at 0.2 µM
  % of inhibition: -29.9%
[5]; at 1 µM
  % of inhibition: 10%
[5]; at 5 µM
  % of inhibition: 26.2%

## CCC(=O)N1CC[C@H](Nc2ncnc3c2CN(c2cnc(OC)c(C(F)(F)F)c2)CC3)C1 [LENIOLISIB]
[6]
  % of inhibition: 98%

## CCC(=O)N1CCN(c2ccc(-n3c(=O)ccc4cnc5ccc(-c6cnc7ccccc7c6)cc5c43)cc2C(F)(F)F)CC1
[7]
  % of control: 77%
